According to patent US12398117B2, “Heteroarylamidopyridinol derivative and pharmaceutical composition comprising same as active ingredient for prevention or treatment of autoimmune disease” (INNOVO THERAPEUTICS INC., priority 2019, dated 2025):

Key:
[1] = tested on: adhesion of intestinal epithelial cells (HT-29) and monocytic cells (U937) induced by TNF-α; assay: Inhibition of TNF-α-induced adhesion of monocytes and intestinal epithelial cells; assay type: cell-based, human; conditions: Homo sapiens
Experimental: HT-29 human colon cancer-derived epithelial cells and U937 human-derived monocytes were cultured in RPMI 1640 medium containing 10% FBS and 1% penicillin/streptomycin (PS) in a 37° C., 5% CO2 incubator. When the cells grew more than 80% of the bottom area of the culture flask, they were passaged at a ratio of 1:3 and used in this experiment. HT-29 cells were cultured in a 24-well plate at the density of 2×10^5 cells/cm^2, and the test drug was pretreated in a medium containing 1% FBS and 1% PS for 1 hour. Thereafter, 10 μg/mL of BCECF-AM was treated thereto and reacted at 37° C. for 30 minutes. U937 cells loaded with BCECF and TNF-α (10 ng/mL) were reacted with HT-29 cells previously treated with the test drug at 37° C. for 3 hours. Upon completion of the reaction, the medium was removed, and the culture flask was washed twice with PBS to remove non-adherent U937 cells. In the next step, the cells were lysed by treating with 0.1% Triton X-100 (0.1 M Tris) and reacted at room temperature for 30 minutes. Then, fluorescence was measured and quantified using a fluostar optima microplate reader (BMG Labtechnologies, Germany) (Carvalho et al., 1996; Thapa et al., 2008).

[2] = tested on: adhesion of intestinal epithelial cells (HT-29) and monocytic cells (U937) induced by IL-6; assay: Inhibition of IL-6-induced adhesion of monocytes and intestinal epithelial cells; assay type: cell-based, human; conditions: Homo sapiens
In short: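 HT-29 monolayers pretreated 1 h with test drug in 1% FBS medium, then co-incubated 3 h at 37 °C with BCECF-labeled U937 monocytes plus IL-6 (10 ng/mL). After removal of non-adherent cells, bound monocytes quantified by BCECF fluorescence of Triton X-100 lysates.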

[3] = tested on: collagen-induced rheumatoid arthritis animal model; assay: Oral efficacy in collagen-induced rheumatoid arthritis (CIA) mouse model; assay type: in vivo, DBA/1J mice
Experimental: 12-week-old normal male mice and arthritis-induced DBA/1J mice were purchased from Central Lab. Animal Inc [To induce arthritis, DBA/1J mice were sensitized by injecting a mixed solution of Complete Freund's Adjuvant (CFA; DIFCO, Detroit, MI) and Bovine Type II collagen (1:1, v/v) intradermally at the pinna base at 8 weeks of age, and then, secondary sensitization was performed by intradermal injection at the tail head at 11 weeks of age]. The purchased arthritis mice were acclimatized to the laboratory environment for a week, and then oral administration of the drug was started.
Visual observation of arthritic lesions was performed using the following scores based on a reference (Barnett et al., 1998).
Therefore, the highest score for arthritic lesions was 16 per mouse.
The hind paw thickness, which is one of the pathological indices of rheumatoid arthritis, was measured using a caliper.
The right hind leg of each mouse was extracted, and all skin and muscles were removed, leaving only the bones and joints. The hind leg was fixed in 4% paraformaldehyde solution for 2 days, then immersed in 10% formic acid for 5 days to decalcify, and then immersed in 30% sucrose solution. When the tissue subsided, the articular tissue was cut into […] thick using a cryomicrotome (Microm HM 450, Thermo Fisher Scientific, Germany) and stored in a cryopreservation solution. Staining was performed using the stored tissue sections. After attaching the tissue sections to the slide glass, they were hydrated with 100%, 95%, 70%, and 50% ethanol solutions, and some were stained with safranin and others were stained with hematoxylin/eosin. For safranin staining, the tissue sections were first stained with 0.1% fast green solution, washed with 1% acetic acid solution, and then stained with 1% safranin solution. Thereafter, the tissue sections were dehydrated by immersing in ethanol solutions in the reverse order of hydration, and then preserved in xylene solution and mounting solution, and photographed under a microscope. Hematoxylin/eosin staining was performed in the same manner as in the colon tissue staining. The tissue sections were dehydrated, preserved in xylene solution and mounting solution, and observed under a microscope.
The degree of microscopic tissue damage of the stained articular tissue was measured using the following scores.
After the spleen and draining lymph nodes of the mice were extracted, the number of immune cells was counted. To confirm the distribution of Th1 and Th17 cells, the immune cells obtained from each organ were stimulated using PMA/Ionomycin and Golgi stop.
After staining using an anti-IFN-γ antibody that can identify Th1 cells, an anti-IL-17 antibody that can identify Th17 cells, and an anti-CD8 antibody that can identify cytotoxic T cells, the proportion of inflammatory cells among the total immune cells was confirmed using flow cytometry.

IC50 ([1]; inhibition of adhesion by TNF-α): 300 nM | IC50 ([2]; inhibition of adhesion by IL-6): 340 nM
Structure (SMILES): Cc1ccc2[nH]c(C(=O)Nc3nc(C)c(O)c(C)c3C)cc2c1 [Compound X-09, N-(5-hydroxy-3,4,6-trimethylpyridin-2-yl)-5-methyl-1H-indole-2-carboxamide]
inhibition at 1 µM ([1]; test drug 1 μM, TNF-α 10 ng/mL, HT-29/U937, read-out: Inhibitory activity (%)): 82.8% | inhibition at 1 µM ([2]; 3 h, test drug 1 μM, IL-6 10 ng/mL, HT-29/U937, read-out: inhibitory activity (%)): 71.7% | number of inflammatory cells Th1 and Th17 and activated CD8 cells in spleen ([3]; after 35 days of drug administration, FIG. 8B): dose-dependent decrease | number of inflammatory cells Th1 and Th17 and activated CD8 cells in draining lymph node ([3]; after 35 days of drug administration, FIG. 8C): dose-dependent effect | hind paw thickness ([3]; oral 50 mg/kg, 35th day of drug administration): 1.70 mm | arthritis score ([3]; oral 50 mg/kg, 35th day of drug administration, maximum score 16): 7.2 | degree of arthritis (visual observation score) ([3]; oral, up to 35 days, FIG. 5A): significantly improved dose dependently
